2 compounds from patent US8962633B2, “Methods of treatment and prevention of metabolic bone diseases and disorders” (Thomas Jefferson University, priority 2007, dated 2015) can be followed below.

The test system of experiment [1] is diabetic/hypercholesterolemic pig model (DM/HC). The experiment in a line: MicroCT analysis of trabecular bone (medial femoral condyle) in the DM/HC pig model. Format: in vivo. Particulars: for SMI (structural model index) / Tb.Th (trabecular thickness): 10 mg/kg/day. The procedure: Animal model: A diabetic/diabetic hypercholestrolemic pig model (DM/HC) was developed that mimics human-like atherosclerosis. Domestic Yorkshire boars weighing 25-30 kg and aged ˜4 months were castrated and made diabetic with a single intravenous injection of 125 mg/kg of streptozotocin (Sicor Pharmaceuticals, Irvine, Calif.). […] The animals were sacrificed at 6-month after the randomization. The animal protocol has been approved by the Institutional Animal Care and Use Committee of University of Pennsylvania. Daily dosing began on Day 29, at which time each test animal was given a daily dose of 10 mg/kg SB-480848 (given as bolus equivalent in dog food). Animals were NPO from midnight the night before. Animals were euthanized on Day 196 and tissues harvested immediately. Tissue sampling: The right knee joint was removed and dissected. The femoral bone was split in half in parallel to the long axis of the bone. A piece of bone including both the articular surface and growth plate region (˜15-20 mm) was sliced off from the front and parallel to the femoral shaft (FIG. 1). The tissues were fixed in 4% paraformaldehyde and scanned within one week in a μCT scanner (μCT-40, Scanco Corp.) with a voxel resolution of 20 μm. MicroCT Analysis—Micro CT analysis generates 3 dimensional data including bone density and indices of micro-architecture. From the central region, i.e., between the articular surface (top) and the growth plate (bottom), 250 slices (˜[…]) were analyzed. To avoid artifact, the measurements were contoured away from the regions directly below the articular surface and the cutting edges. Paraformaldehyde fixed tissues (2×2 cm) were analyzed using microCT 40 (Scanco Medical, Bassersdorf, Switzerland) and a 3D reconstruction of the images slices was generated. The tissues were scanned at a medium resolution with slice thickness and slice increments of 20 μm. […] Scanning was performed at an energy setting of 70000 (V) and an intensity of 114 (μA) with an integration time of 200 ms. All values for tissue volume (mm3), bone volume (mm3), bone volume/tissue volume, and mean/density (mg HA/ccm) were also calculated and recorded. […] The image density was measured with the Distance3D tool of the μCT Evaluation Program V5.0.

The nature of experiment [2]: Body weight and general observation of DM/HC pigs during the study. In kind it is in vivo, pig. The protocol:
(§1) Animal model: A diabetic/diabetic hypercholestrolemic pig model (DM/HC) was developed that mimics human-like atherosclerosis. Domestic Yorkshire boars weighing 25-30 kg and aged ˜4 months were castrated and made diabetic with a single intravenous injection of 125 mg/kg of streptozotocin (Sicor Pharmaceuticals, Irvine, Calif.). After stabilized for 1-2 weeks, the animals with elevated levels of plasma glucose (>150 mg/dl) were fed with atherogenic (high-fat) diet as shown in Table 1 (Animal Specialties, Quakertown, Pa.) to achieve a cholesterol level of approximately 250-800 mg/dl.
(§2) At one month after stabilization of choleresterol at 250-800 mg/dl, the animals were randomized into two experimental groups, DM/HC (hyperglycemia and hypercholesterolemia) group with no treatment and treatment group (10 mg/kg/day of SB-480848, also referred to as 1-(N-(2-(diethylamino)ethyl)-N-(4-(4-trifluoromethylphenyl)benzyl)-aminocarbonylmethyl)-2-(4-fluorobenzyl)thio-5,6-trimethylenepyrimidin-4-one). The animals were sacrificed at 6-month after the randomization. The animal protocol has been approved by the Institutional Animal Care and Use Committee of University of Pennsylvania.
(§3) Daily dosing began on Day 29, at which time each test animal was given a daily dose of 10 mg/kg SB-480848 (given as bolus equivalent in dog food). Animals were NPO from midnight the night before. […]

The test system of experiment [3] is diabetic/hypercholesterolemic pig model (DM/HC). The experiment is described as follows: Histochemical staining (H&E-AB) of bone marrow in DM/HC pigs. In kind it is in vivo. Particulars: treated vs non-treated DM/HC pigs. The procedure:
as §1, §2, §3

Experiment [4] has the same test system. The experiment is described as follows: TUNEL assay of trabecular bone in DM/HC pigs. In kind it is in vivo. Particulars: treated vs non-treated DM/HC pigs, n=4 per group. The protocol:
as §1, §2
Daily dosing began on Day 29, at which time each test animal was given a daily dose of 10 mg/kg SB-480848 (given as bolus equivalent in dog food). […]
TUNEL Assay. Apoptosis was measured by the TUNEL assay. […]

The test system of experiment [5] is MLO-A5 osteoblastic cells. The experiment in a line: Alizarin Red staining (mineralization) of MLO-A5 cells. The settings on record: 5 μM LysoPC, 7 days, vs non-treated control cells. In kind it is cell-based, mice. The procedure: (§4) Alkaline Phosphatase and Alizarin Red Staining. Alizarin Red and Alkaline Phosphatase Staining are bone marker proteins indicating the degree of mineralization and intensity of osteblast differentiation, respectively. MLO-A5 osteoblastic cells (isolated from 14-day-old osteocalcin promoter-driven T-antigen transgenic mice, J Bone Miner Res 12:2014-2023, 1997) were cultured on Collagen1 coated plates at density 15000 cells/well in 12-well TC plates. After 24 hours, the cells were treated w/10 mM β-GP and LysoPC at 5 μM concentration for 3 and 7 days. Treatment was repeated every other day. At each time point alizarin red and alkaline phosphatase staining was performed. Alkaline phosphatase Detection Kit (Chemicon, Intl., Temecula, Calif., SCR004) was used for detection and performed as per manufactures instructions. To visualize mineralization the cells were washed once with a 2% Alizarin Red S solution for 5-10 min. at room temperature followed by one wash with water, two washes with PBS and fixation with paraformaldehyde. The results were then imaged with a digital cooled CCD camera.

The subject of experiment [6] is MLO-A5 osteoblastic cells. The experiment is described as follows: Alkaline phosphatase staining (osteoblast differentiation) of MLO-A5 cells. The settings on record: vs control. Format: cell-based, mice. The procedure: as §4
A further experiment deals with MLO-A5 cells. The experiment is described as follows: CyQUANT cell proliferation assay in MLO-A5 cells. Format: cell-based, mice. The settings on record: 5 μM LysoPC, 18 hours, vs non-treated cells. The procedure:
Cell Proliferation. MLO-A5 cells were plated in 48-well TC dishes at a density of 5,000 cells/well and allowed to attach (5-6 hrs.). The cells were treated with 5 uM of Lyso PC for 18 hrs followed by analysis with the CyQUANT Cell Proliferation Assay Kit (Molecular Probes) following manufacturers instructions to measure MLO-A5 proliferation.

[7] abbreviates: DM/HC pigs, 10 mg/kg/day SB-480848, sacrificed Day 196.
Setting [8] is: DM/HC pigs, 10 mg/kg/day SB-480848, sacrificed Day 196, listed as Lp-PLA2 inhibitor.

Regarding `CCN(CC)CCN(Cc1ccc(-c2ccc(C(F)(F)F)cc2)cc1)C(=O)Cn1c(SCc2ccc(F)cc2)nc(=O)c2c1CCC2` [SB480848, 1-(N-(2-(diethylamino)ethyl)-N-(4-(4-trifluoromethylphenyl)benzyl)-aminocarbonylmethyl)-2-(4-fluorobenzyl)thio-5,6-trimethylenepyrimidin-4-one], in experiment [1] (DM/HC pigs treated with inhibitor, in words), the “osteoporotic changes (BV/TV, BS/BV)” value is “no osteoporotic changes”. For the same compound, in experiment [1] (setting [7]), the “BS/BV (bone surface over bone volume)” value turned out to be 24.40 ± 0.51, the “BV/TV (bone volume over total volume)” value is reported as 0.25 ± 0.01, the “Conn-Dens (connectivity density)” value is 35.69 ± 1.22 and the “Tb.N (trabecular number)” value was determined as 2.78 ± 0.06. For the same compound, in experiment [1] (setting [7]), the “Tb.Sp (trabecular separation)” value was 0.33 ± 0.007, the “SMI (structural model index)” value is 0.65 ± 0.10 and the “Tb.Th (trabecular thickness)” value was found to be 0.10 ± 0.002. For the same compound, in experiment [1] (setting [8]), the “SMI (structural model index)” value is “degenerative changes were minimized” and the “Tb.Th (trabecular thickness)” value is given as “reduced Tb.Th thickness was prevented”. Moreover, the “changes in Tb.Sp, TbN and ConnD” value in experiment [1] (control vs DM/HC vs treated DM/HC animals, in words) is “no significant changes”. The compound further showed a weight in experiment [2] (treated DM/HC pigs at end of study, baseline 26.9 kg, control animals 50.9 kg) of 62.5 kg. Besides, the “responsiveness and activity of the animals” value in experiment [2] (treated vs control DM/HC pigs, observation) is “more responsive to external stimuli”. Further, in experiment [3] (H&E-AB staining, trabecular bone areas), the “trabecular bone marrow morphology / homeostasis” value was “preserved bone marrow homeostasis”. Also, the “bone marrow remote from trabecular bone” value in experiment [3] was “prevented DM/HC-induced bone marrow abnormalities”. For the same compound, in experiment [4], the “death of osteocytes and osteoblasts (TUNEL positive cells)” value is “reduced death of osteocytes and osteoblasts”.
In the case of lyso-phosphatidylcholine [LysoPC], the “mineralization (Alizarin Red staining)” value in experiment [5] is given as “decreased mineralization”. The alkaline phosphatase staining entry in experiment [6] (5 μM LysoPC, 7 day treatment) is listed as “decreased alkaline phosphatase staining”; in experiment [6] (at least 5 μM LysoPC (5 and 20 μM), 7 days) it was “reduced alkaline phosphatase staining”. In addition, the proliferation entry with MLO-A5 cells is “reduced proliferation”.
